Some test systems named below: Escherichia coli; Candida albicans; Staphylococcus aureus; Bacillus subtilis; Pseudomonas aeruginosa; Escherichia coli UB1005.
Experiment in all cases: ≥ marks a high value that may be exact or a test limit, other limits are often not marked, values filed in µg/mL are converted to µM
Test [1] relates to Staphylococcus epidermidis.
For test [2], the system named is Pseudomonas aeruginosa ATCC 27853.
The test system of test [3] is Escherichia coli ATCC 25922.
For test [4], the system named is Staphylococcus aureus ATCC 25923.
Test [5] has as its system Candida albicans ATCC 2002.
The test system of test [6] is Pseudomonas aeruginosa PAO1.

By MIC is commonly meant the least concentration at which growth counts as inhibited. Low readings indicate greater potency, high ones weaker potency.

≈ marks a conversion by molar mass, not a printed value.

Consider `CC[C@H](C)[C@H](NC(=O)[C@H](CO)NC(=O)[C@@H](NC(=O)[C@H](CCCCN)NC(=O)[C@H](Cc1ccccc1)NC(=O)[C@@H]1CCCN1C(=O)[C@@H](N)CCC(=O)O)[C@@H](C)CC)C(=O)N[C@@H](Cc1cnc[nH]1)C(=O)N[C@@H](CC(C)C)C(=O)NCC(=O)NCC(=O)N[C@@H](Cc1ccc(O)cc1)C(N)=O` [EPFKISIHLGGY], for which the MIC in test [1] was not below 220 µM.

With `CC[C@H](C)[C@H](NC(=O)[C@H](CC(=O)O)NC(=O)[C@H](CC(C)C)NC(=O)[C@H](Cc1ccccc1)NC(=O)CN)C(=O)N[C@H](C(=O)N[C@@H](CCCCN)C(=O)NCC(=O)N[C@H](C(=O)NCC(=O)N[C@@H](CCCCN)C(=O)N[C@H](C(=O)N[C@@H](C)C(=O)N[C@@H](CC(C)C)C(=O)NCC(=O)N[C@@H](C)C(=O)N[C@H](C(=O)N[C@@H](CO)C(=O)N[C@@H](CCCCN)C(=O)N[C@@H](CC(C)C)C(=O)N[C@@H](Cc1ccccc1)C(N)=O)C(C)C)C(C)C)C(C)C)C(C)C` [GFLDIVKGVGKVALGAVSKLF], the results for the MIC against Escherichia coli, against Candida albicans and in the test on Staphylococcus aureus were 15.1 µM (≈ 32 µg/mL), 3.78 µM (≈ 8 µg/mL) and 3.78 µM (≈ 8 µg/mL), respectively.

Consider `CC[C@H](C)[C@@H]1NC(=O)[C@H](CCCCN)NC(=O)[C@@H](NC(=O)[C@H](CCCCN)NC(=O)[C@H](CC(C)C)NC(=O)[C@H](CC(N)=O)NC(=O)[C@H](CC(=O)O)NC(=O)[C@H](CC(C)C)NC(=O)[C@H](CC(C)C)NC(=O)[C@@H](NC(=O)[C@@H](NC(=O)[C@H](C)NC(=O)[C@@H](NC(=O)[C@H](CC(N)=O)NC(=O)[C@H](CCCCN)NC(=O)[C@H](C)NC(=O)[C@H](C)NC(=O)[C@H](CC(N)=O)NC(=O)[C@H](CCCCN)NC(=O)[C@H](C)NC(=O)[C@@H](NC(=O)[C@H](CC(=O)O)NC(=O)[C@H](CCSC)NC(=O)[C@H](Cc2ccccc2)NC(=O)CN)[C@@H](C)O)C(C)C)C(C)C)[C@@H](C)O)CSSC[C@@H](C(=O)O)NC(=O)[C@H](C)NC(=O)[C@H](CCCCN)NC(=O)[C@H]([C@@H](C)O)NC1=O` [GFMDTAKNAAKNVAVTLLDNLKCKITKAC], for which the MIC with Escherichia coli was 1.36 µM (≈ 4.2 µg/mL); with Candida albicans, 0.341 µM (≈ 1.05 µg/mL); against Bacillus subtilis, 2.72 µM (≈ 8.39 µg/mL); in the test with Staphylococcus aureus, 0.681 µM (≈ 2.1 µg/mL).

For `CC[C@H](C)[C@H](NC(=O)[C@H](CO)NC(=O)CNC(=O)[C@H](CCCN=C(N)N)NC(=O)[C@@H](NC(=O)[C@H](CO)NC(=O)[C@@H](NC(=O)CNC(=O)[C@H](CO)NC(=O)[C@H](CC(C)C)NC(=O)[C@H](CC(C)C)NC(=O)CN)[C@@H](C)O)C(C)C)C(=O)O` [GLLSGTSVRGSI], the MIC turned out to be 31.4 µM (≈ 36 µg/mL) against Escherichia coli, 7.85 µM (≈ 9 µg/mL) in the test on Candida albicans, 15.7 µM (≈ 18 µg/mL) against Bacillus subtilis and 15.7 µM (≈ 18 µg/mL) with Staphylococcus aureus.

On to `CC[C@H](C)[C@H](N)C(=O)N[C@@H](CC(=O)O)C(=O)N[C@@H](Cc1c[nH]c2ccccc12)C(=O)N[C@@H](CCCCN)C(=O)N[C@@H](CCCCN)C(=O)N[C@H](C(=O)N[C@@H](Cc1ccccc1)C(=O)N[C@@H](CCC(=O)O)C(=O)N[C@@H](CCCCN)C(=O)N[C@H](C(=O)N[C@@H](CCCCN)C(=O)N[C@@H](CC(N)=O)C(=O)N[C@@H](CC(C)C)C(=O)N[C@H](C(N)=O)C(C)C)C(C)C)[C@@H](C)CC` [IDWKKIFEKVKNLV], for which the MIC against Escherichia coli was determined as 13 µM (≈ 22.9 µg/mL); in the test with Bacillus subtilis, 8.5 µM (≈ 15 µg/mL).

Consider `CC[C@H](C)[C@H](N)C(=O)N[C@@H](CC(N)=O)C(=O)N[C@@H](Cc1c[nH]c2ccccc12)C(=O)N[C@@H](CCCCN)C(=O)N[C@@H](CCCCN)C(=O)N[C@H](C(=O)N[C@@H](C)C(=O)N[C@@H](CO)C(=O)N[C@H](C(=O)NCC(=O)N[C@@H](CCCCN)C(=O)N[C@@H](CCC(=O)O)C(=O)N[C@H](C(=O)N[C@@H](CC(C)C)C(=O)N[C@@H](CCCCN)C(=O)N[C@@H](C)C(=O)N[C@H](C(N)=O)[C@@H](C)CC)C(C)C)[C@@H](C)CC)[C@@H](C)CC` [INWKKIASIGKEVLKAI], for which the minimal inhibitory concentration (MIC) in the test on Escherichia coli is 5.5 µM (≈ 10.5 µg/mL); against Bacillus subtilis, 27.2 µM (≈ 52 µg/mL).

For the compound `CC[C@H](C)[C@H](N)C(=O)N[C@@H](CC(N)=O)C(=O)N[C@@H](Cc1c[nH]c2ccccc12)C(=O)N[C@@H](CCCCN)C(=O)N[C@@H](CCCCN)C(=O)N[C@H](C(=O)N[C@@H](C)C(=O)N[C@@H](CO)C(=O)N[C@H](C(=O)NCC(=O)N[C@@H](CCCCN)C(=O)N[C@@H](CCC(=O)O)C(=O)N[C@H](C(=O)N[C@@H](CC(C)C)C(N)=O)C(C)C)[C@@H](C)CC)[C@@H](C)CC` [INWKKIASIGKEVL], the values for the MIC in the test on Escherichia coli and against Bacillus subtilis were 100 µM (≈ 160 µg/mL) and not below 100 µM, respectively.

Regarding `CC[C@H](C)[C@H](NC(=O)[C@H](CC(C)C)NC(=O)[C@@H]1CCCN1C(=O)[C@H](CS)NC(=O)[C@H](CC(C)C)NC(=O)CNC(=O)[C@@H]1CCCN1C(=O)[C@H](CCCCN)NC(=O)[C@H](CCCCN)NC(=O)[C@@H]1CCCN1C(=O)[C@H](CCCN=C(N)N)NC(=O)[C@H](CC(=O)O)NC(=O)[C@@H](N)CCCCN)C(=O)N[C@@H](Cc1c[nH]c2ccccc12)C(=O)N[C@@H](Cc1c[nH]c2ccccc12)C(=O)N[C@@H](CC(C)C)C(=O)N[C@H](C(=O)N[C@H](C(=O)N[C@@H](CCCCN)C(=O)N[C@H](C(=O)NCC(N)=O)C(C)C)[C@@H](C)CC)[C@@H](C)CC` [KDRPKKPGLCPLIWWLIIKVG], the MIC in test [2] was determined as 25.4 µM (≈ 62.5 µg/mL); in test [3], 6.35 µM (≈ 15.6 µg/mL); with Escherichia coli, 12.7 µM (≈ 31.2 µg/mL); in the test with Pseudomonas aeruginosa, 25.4 µM (≈ 62.5 µg/mL); in the test on Candida albicans, 102 µM (≈ 250 µg/mL); against Staphylococcus aureus, 50.8 µM (≈ 125 µg/mL). The same compound showed an MIC in test [4] of 50.8 µM (≈ 125 µg/mL).

With `CC[C@H](C)[C@H](NC(=O)[C@@H](NC(=O)[C@@H](NC(=O)[C@@H]1CCCN1C(=O)[C@H](Cc1c[nH]c2ccccc12)NC(=O)[C@H](Cc1ccccc1)NC(=O)[C@H](CCCN=C(N)N)NC(=O)[C@H](CCCCN)NC(=O)[C@@H](NC(=O)[C@@H](N)CCCN=C(N)N)[C@@H](C)CC)C(C)C)C(C)C)C(=O)N[C@@H](CCCN=C(N)N)C(=O)N[C@H](C(=O)N[C@H](C(=O)N[C@H](C(=O)N[C@@H](C)C(=O)NCC(=O)N[C@@H](Cc1ccc(O)cc1)C(=O)O)C(C)C)C(C)C)[C@@H](C)O` [RIKRFWPVVIRTVVAGY], in test [5], the minimal inhibitory concentration (MIC) is not below 36.4 µM.

For `CC[C@H](C)[C@H](NC(=O)[C@@H](NC(=O)[C@@H](NC(=O)[C@@H]1CCCN1C(=O)[C@H](Cc1c[nH]c2ccccc12)NC(=O)[C@H](Cc1ccccc1)NC(=O)[C@H](CCCN=C(N)N)NC(=O)[C@H](CCCCN)NC(=O)[C@@H](NC(=O)[C@@H](N)CCCN=C(N)N)[C@@H](C)CC)C(C)C)C(C)C)C(=O)N[C@@H](CCCN=C(N)N)C(=O)N[C@H](C(=O)N[C@H](C(=O)N[C@H](C(=O)N[C@@H](C)C(=O)NCC(=O)O)C(C)C)C(C)C)[C@@H](C)O` [RIKRFWPVVIRTVVAG], the MIC in [5] was not below 79.1 µM.

Consider `CC[C@H](C)[C@H](NC(=O)[C@H](CCCCN)NC(=O)[C@H](CS)NC(=O)[C@H](C)NC(=O)[C@@H](NC(=O)[C@H](Cc1ccccc1)NC(=O)CNC(=O)[C@H](CC(C)C)NC(=O)CNC(=O)[C@@H](NC(=O)[C@H](CCCCN)NC(=O)CNC(=O)[C@H](CC(C)C)NC(=O)[C@H](CC(N)=O)NC(=O)[C@H](CCCCN)NC(=O)[C@H](CC(C)C)NC(=O)[C@@H](NC(=O)[C@H](CCCCN)NC(=O)[C@H](CC(C)C)NC(=O)[C@H](CCSC)NC(=O)[C@@H](N)CO)C(C)C)C(C)C)C(C)C)C(=O)N[C@@H](CC(N)=O)C(=O)N[C@@H](CCCCN)C(=O)N[C@@H](CCC(N)=O)C(=O)N[C@@H](CS)C(=O)O` [SMLKVLKNLGKVGLGFVACKINKQC], for which the values for the minimum inhibitory concentration (MIC) against Escherichia coli, with Candida albicans and in the test with Staphylococcus aureus were 10 µM (≈ 26.9 µg/mL), 40 µM (≈ 108 µg/mL) and 20 µM (≈ 53.8 µg/mL), respectively.

Regarding `CC[C@H](C)[C@H](NC(=O)[C@H](CCCCN)NC(=O)[C@H](C)NC(=O)[C@H](C)NC(=O)[C@@H](NC(=O)[C@H](Cc1ccccc1)NC(=O)CNC(=O)[C@H](CC(C)C)NC(=O)CNC(=O)[C@@H](NC(=O)[C@H](CCCCN)NC(=O)CNC(=O)[C@H](CC(C)C)NC(=O)[C@H](CC(N)=O)NC(=O)[C@H](CCCCN)NC(=O)[C@H](CC(C)C)NC(=O)[C@@H](NC(=O)[C@H](CO)NC(=O)[C@H](CC(C)C)NC(=O)[C@H](CCSC)NC(=O)[C@@H](N)CO)C(C)C)C(C)C)C(C)C)C(=O)N[C@@H](C)C(=O)N[C@@H](CCCCN)C(=O)N[C@@H](CCC(N)=O)C(=O)N[C@@H](C)C(=O)O` [SMLSVLKNLGKVGLGFVAAKIAKQA], the MIC came to 20 µM (≈ 50.9 µg/mL) in the test on Escherichia coli, 100 µM (≈ 254 µg/mL) in the test on Candida albicans and 100 µM (≈ 254 µg/mL) against Staphylococcus aureus.

With `CSCC[C@H](NC(=O)[C@H](CCSC)NC(=O)[C@H](CCCCN)NC(=O)[C@H](CCCCN)NC(=O)CNC(=O)[C@H](CC(C)C)NC(=O)[C@H](CCCCN)NC(=O)[C@H](CC(C)C)NC(=O)[C@H](Cc1c[nH]c2ccccc12)NC(=O)[C@H](CC(N)=O)NC(=O)[C@@H](N)CO)C(=O)N[C@@H](CO)C(=O)N[C@@H](C)C(=O)N[C@@H](CC(C)C)C(N)=O` [SNWLKLGKKMMSAL], the MIC was 100 µM (≈ 161 µg/mL) against Escherichia coli and not below 40 µM in the test with Bacillus subtilis.

Regarding `CC[C@H](C)[C@H](NC(=O)[C@H](CCCN=C(N)N)NC(=O)[C@H](CCCCN)NC(=O)[C@@H]1CCCN1C(=O)[C@@H]1CCCN1C(=O)[C@H](CCCN=C(N)N)NC(=O)[C@@H]1CCCN1C(=O)[C@H](CCCN=C(N)N)NC(=O)[C@@H]1CCCN1C(=O)[C@H](CC(C)C)NC(=O)[C@H](Cc1ccc(O)cc1)NC(=O)[C@@H]1CCCN1C(=O)[C@@H]1CCCN1C(=O)[C@H](CCCCN)NC(=O)[C@H](CC(=O)O)NC(=O)[C@@H](N)C(C)C)C(=O)N[C@@H](Cc1ccc(O)cc1)C(=O)N[C@@H](CC(N)=O)C(=O)N[C@@H](CCCN=C(N)N)C(N)=O` [VDKPPYLPRPRPPKRIYNR], the MIC with Escherichia coli UB1005 is 0.254 µM (≈ 0.6 µg/mL); in test [6] it was 27.1 µM (≈ 64 µg/mL); in test [4] it was 27.1 µM (≈ 64 µg/mL).

The values above are taken from DBAASP.
